Reference: patent publication US5834482A, “Heterocyclic chemistry” (Novo Nordisk A/S, priority 1995, dated 1998)
Counter-ions that a name gives are not always drawn. Like-named read-outs stand apart in the source and are kept apart here.

What was measured:
[1] = molecular target: T1, GABA uptake carrier (Rattus norvegicus, UniProt P31647); assay: 3H-GABA uptake in crude membrane preparation from selected brain areas (in presence of NNC 05-0711); type: biochemical
T1 construct: A crude membrane preparation was prepared from selected brain areas; from tissue
T1 sequence (P31647 1-627): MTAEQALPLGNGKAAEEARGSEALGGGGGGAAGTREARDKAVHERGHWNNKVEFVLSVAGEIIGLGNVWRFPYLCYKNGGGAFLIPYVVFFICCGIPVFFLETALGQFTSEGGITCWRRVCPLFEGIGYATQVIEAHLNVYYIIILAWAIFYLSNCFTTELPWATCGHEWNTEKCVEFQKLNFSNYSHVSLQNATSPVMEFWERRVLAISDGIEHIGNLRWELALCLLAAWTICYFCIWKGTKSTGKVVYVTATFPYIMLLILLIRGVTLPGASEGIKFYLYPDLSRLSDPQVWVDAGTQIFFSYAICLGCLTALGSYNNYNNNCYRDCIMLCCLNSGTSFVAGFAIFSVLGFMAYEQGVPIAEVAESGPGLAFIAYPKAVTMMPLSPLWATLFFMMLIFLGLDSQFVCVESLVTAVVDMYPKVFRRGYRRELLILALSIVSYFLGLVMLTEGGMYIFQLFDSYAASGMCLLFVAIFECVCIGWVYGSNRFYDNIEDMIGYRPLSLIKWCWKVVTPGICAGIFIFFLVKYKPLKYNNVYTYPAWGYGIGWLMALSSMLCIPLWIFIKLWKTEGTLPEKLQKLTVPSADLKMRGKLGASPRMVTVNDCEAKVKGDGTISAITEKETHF
Protocol: ^3 H-GABA uptake was measured by a modification of the method of Fjalland et al., (1978). A crude membrane preparation was prepared from selected brain areas by homogenization in 20 ml of ice-cold 0.32M sucrose with a hand driven teflon/glass Potter-Elvehjem homogenizer. homogenate was centrifuged at 4° C. for 10 min. at 1000×g, and the pellet was discarded. The supernatant was recentrifuged at 4° C. for 20 min. at 20.000×g. The pellet was then homogenized in 50 volumes 0.32M sucrose. To 300 μl uptake-buffer ([…], 15.3 mM KCl, 6.67 mM MgSO4, 3.83 mM CaCl2, 16.67 mM glucose, 66.67 mM Tris, pH 7.5 at 30° C.) was added 1-(2-(((diphenylmethylene)amino)oxy)ethyl)-1,2,5,6-tetrahydro-3-pyridinecarboxylic acid (NNC 05-0711) (1 mM final concentration), 100 μl test substance and 50 μl tissue suspension. The sample were mixed and incubated at 30° C. for 8 min. Then ^3 H-GABA (0.9 nM final concentration) and unlabelled GABA (25 nM final concentration) was added, and the incubation was continued for an additional 8 min. The reaction was terminated by rapid filtration through Whatman GF/F glass fiber filters under vacuum. The filters were then washed twice in 10 ml of ice-cold isotonic saline, and the tritium trapped on the filters was quantified by conventional scintillation spectroscopy. Non-GABA uptake carrier mediated uptake of ^3 H-GABA was determined in the presence of […].

[2] = system: GABA uptake; conditions: cited from earlier work
[3] = system: GABA uptake; conditions: into presynaptic nerve terminals and glial cells; cited from earlier work
[4] = system: GAT-1; conditions: cloned GAT-1; cited from earlier work
[5] = in vitro, crude brain membrane preparation, 1 mM NNC 05-0711, 30° C., 8 min, 0.9 nM 3H-GABA, 25 nM unlabelled GABA, read-out: IC50 (nM) in vitro, Non-GABA uptake carrier mediated uptake of 3H-GABA

Row | SMILES | IC50 [1, 5] | inhibition of GABA uptake, oral activity [2] | other results
1 | CCc1noc(-c2cc3c4ccccc4n(CCCN4CCC(O)(c5ccccc5)CC4)c3cn2)n1 [Compound 4, 1-(3-(3-(3-Ethyl-1,2,4-oxadiazol-5-yl)-9H-β-carbolin-9-yl)-1-propyl)-4-phenylpiperidin-4-ol] | 932 nM | – | –
2 | OC1(c2ccccc2)CCN(CCCn2c3ccccc3c3cc(-c4nc(C5CC5)no4)ncc32)CC1 [Compound 7, 1-(3-(3-(3-Cyclopropyl-1,2,4-oxadiazol-5-yl)-9H-β-carbolin-9-yl)-1-propyl)-4-phenylpiperidin-4-ol hydrochloride] | – | – | IC50 [1]: 1090 nM
3 | OC1(c2ccccc2)CCN(CCCn2c3ccccc3c3cc(-c4nc(-c5ccccc5)no4)ncc32)CC1 [Compound 10, 1-(3-(3-(3-Phenyl-1,2,4-oxadiazol-5-yl)-9H-β-carbolin-9-yl)-1-propyl)-4-phenylpiperidin-4-ol hydrochloride] | – | – | IC50 [1]: 1440 nM
4 | CCOC(=O)c1cc2c(cn1)[nH]c1ccc([N+](=O)[O-])cc12 [Compound 15, 6-Nitro-9H-β-carboline-3-carboxylic acid ethyl ester] | – | – | IC50 [1]: 6380 nM
5 | C=CCN(CC=C)c1ccc2c(c1)c1cc(-c3nc(CC)no3)ncc1n2CCCN1CCC(O)(c2ccccc2)CC1 [Compound 20, 1-(3-(3-(3-Ethyl-1,2,4-oxadiazol-5-yl)-6-dipropenylamino-9H-β-carbolin-9-yl)-1-propyl-4-phenylpiperidin-4-ol hydrochloride] | 5380 nM | – | –
6 | CCc1noc(-c2cc3c4cc(N(C)C)ccc4n(CCCN4CCC(O)(c5ccccc5)CC4)c3cn2)n1 [Compound 24] | 4690 nM | – | –
7 | Cc1noc(-c2cc3c4ccccc4n(CCCN4CCC(O)(c5ccccc5)CC4)c3cn2)n1 [Compound 26, 1-(3-(3-Methyl-1,2,4-oxadiazol-5-yl)-β-carbolin-9-yl)-1-propyl)-4-phenylpiperidin-4-ol hydrochloride] | 1640 nM | – | –
8 | Cc1nc(-c2cc3c4ccccc4n(CCCN4CCC(O)(c5ccccc5)CC4)c3cn2)no1 [Compound 28, 1-(3-(5-Methyl-1,2,4-oxadiazol-3-yl)-β-carbolin-9-yl)-1-propyl)-4-phenylpiperidin-4-ol hydrochloride] | 1240 nM | – | –
9 | O=C(O)C1CCCN(CCC=C(c2ccccc2)c2ccccc2)C1 (centres unmarked) [SK&F 89976A, N-(4,4-diphenyl-3-buten-1-yl)nipecotic acid] | – | orally active inhibitors of GABA uptake | –
10 | O=C(O)C1=CCCN(CCC=C(c2ccccc2)c2ccccc2)C1 [SK&F 100330A, N-(4,4-diphenyl-3-buten-1-yl)guvacine] | – | orally active inhibitors of GABA uptake | –
11 | O=C(O)CC1CCN(CCC=C(c2ccccc2)c2ccccc2)C1 (stereo not drawn) [SK&F 100561, N-(4,4-diphenyl-3-buten-1-yl)-homo-β-proline] | – | orally active inhibitors of GABA uptake | –
12 | O=C(O)C1CCCN(CCC=C(c2ccccc2)c2cccs2)C1 (centres unmarked) [SK&F 100604J, N-(4-phenyl-4-(2-thienyl)-3-buten-1-yl)nipecotic acid] | – | orally active inhibitors of GABA uptake | –
13 | O=C(O)C1CCCNC1 (centres unmarked) [nipecotic acid, 3-piperidinecarboxylic acid] | – | – | inhibition of GABA uptake from the synaptic cleft [3]: potent inhibitor of GABA uptake; sensitivity of GAT-1 [4]: high sensitivity
